Measurements taken from patent US11179383B2 (Gilead Sciences, Inc., priority 2018, dated 2021).
pEC50: −log10 of the molar value.

What follows are compounds tested against T1, α4β7 integrin (Homo sapiens, UniProt P13612+P26010) (assay: α4β7 Integrin Cell Capture Assay). Settings: capture of α4β7 integrin expressing RPMI8866 cells on recombinant MadCAM-1 extracellular domain-coated plate; DMEM+0.5% FBS+0.5 mM MnCl2; read-out: EC50 α4β7.
T1 construct: monitoring the capture of α4β7 integrin expressing cells on a recombinant MadCAM-1 extracellular domain-coated plate; endogenous in cells; host or cells: RPMI8866 cells
T1 sequence (P13612 34-1032): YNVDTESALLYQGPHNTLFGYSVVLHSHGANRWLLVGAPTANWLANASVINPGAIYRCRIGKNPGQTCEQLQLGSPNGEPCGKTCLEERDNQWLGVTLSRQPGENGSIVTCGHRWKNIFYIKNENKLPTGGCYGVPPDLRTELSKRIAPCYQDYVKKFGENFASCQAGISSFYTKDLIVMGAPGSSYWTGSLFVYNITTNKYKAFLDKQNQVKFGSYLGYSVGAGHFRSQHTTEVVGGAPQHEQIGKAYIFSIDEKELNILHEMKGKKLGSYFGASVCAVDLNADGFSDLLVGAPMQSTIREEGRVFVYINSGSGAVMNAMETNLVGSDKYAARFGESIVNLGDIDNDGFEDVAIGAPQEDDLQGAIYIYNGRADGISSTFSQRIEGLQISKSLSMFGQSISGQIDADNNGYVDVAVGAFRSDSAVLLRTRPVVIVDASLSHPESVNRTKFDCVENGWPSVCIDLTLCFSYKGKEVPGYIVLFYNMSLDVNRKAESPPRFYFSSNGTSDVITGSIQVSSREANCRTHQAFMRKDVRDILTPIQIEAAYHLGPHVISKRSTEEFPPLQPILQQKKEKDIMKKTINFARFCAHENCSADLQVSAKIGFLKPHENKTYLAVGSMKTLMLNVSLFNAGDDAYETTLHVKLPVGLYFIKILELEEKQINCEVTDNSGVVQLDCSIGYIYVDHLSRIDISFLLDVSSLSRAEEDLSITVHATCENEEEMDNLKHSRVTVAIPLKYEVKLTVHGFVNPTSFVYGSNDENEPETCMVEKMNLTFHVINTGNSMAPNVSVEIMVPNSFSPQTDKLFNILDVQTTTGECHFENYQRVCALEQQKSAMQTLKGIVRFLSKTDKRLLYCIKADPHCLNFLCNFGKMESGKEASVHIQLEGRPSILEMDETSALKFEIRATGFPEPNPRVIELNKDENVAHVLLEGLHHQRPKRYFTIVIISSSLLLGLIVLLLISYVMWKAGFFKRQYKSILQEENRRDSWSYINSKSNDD
T1 sequence (P26010 20-798): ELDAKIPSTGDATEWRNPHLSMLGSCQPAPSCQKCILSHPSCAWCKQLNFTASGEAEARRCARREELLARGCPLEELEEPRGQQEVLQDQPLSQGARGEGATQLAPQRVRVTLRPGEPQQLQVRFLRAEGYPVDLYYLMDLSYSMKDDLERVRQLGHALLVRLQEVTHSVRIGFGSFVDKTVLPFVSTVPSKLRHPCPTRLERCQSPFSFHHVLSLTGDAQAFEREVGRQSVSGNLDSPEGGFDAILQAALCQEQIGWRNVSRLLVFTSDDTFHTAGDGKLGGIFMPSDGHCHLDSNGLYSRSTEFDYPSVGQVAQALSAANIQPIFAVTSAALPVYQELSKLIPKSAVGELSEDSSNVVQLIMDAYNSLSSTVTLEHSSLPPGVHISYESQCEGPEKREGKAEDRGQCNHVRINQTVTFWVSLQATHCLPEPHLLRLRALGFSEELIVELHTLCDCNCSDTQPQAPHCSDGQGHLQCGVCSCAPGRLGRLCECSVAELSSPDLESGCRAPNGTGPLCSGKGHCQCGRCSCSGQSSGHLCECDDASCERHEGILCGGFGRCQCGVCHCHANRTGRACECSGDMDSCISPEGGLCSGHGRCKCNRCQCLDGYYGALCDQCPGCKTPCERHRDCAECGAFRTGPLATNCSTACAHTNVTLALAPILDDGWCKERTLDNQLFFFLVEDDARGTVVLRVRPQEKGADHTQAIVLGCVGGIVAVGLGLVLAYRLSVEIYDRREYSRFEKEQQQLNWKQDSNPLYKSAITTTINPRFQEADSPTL
Type: cell-based
How it was run: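 RPMI8866 cells in DMEM + 0.5% FBS + 0.5 mM MnCl2 preincubated with compound 1 h at 37 °C, then allowed to bind 30 min at 37 °C to plates coated with MAdCAM-1 extracellular domain (1.0 μg/mL). Cells fixed with glutaraldehyde, Hoechst-stained, imaged and bound cells counted; EC50 from cell count versus concentration.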

| Structure (SMILES) | pEC50 |
| --- | --- |
| Cc1c(-c2ccc(C[C@H](NC(=O)c3c(Cl)cccc3Cl)C(=O)O)c3ncccc23)c(=O)n(C)c2ccc(F)cc12 [Example 10, (S)-2-(2,6-dichlorobenzamido)-3-(6-fluoro-1,4-dimethyl-2-oxo-1,2-dihydro-[3,5′-biquinolin]-8′-yl)propanoic acid] | 8.96 |
| Cc1c(-c2ccc(C[C@H](NC(=O)c3c(Cl)cccc3Cl)C(=O)O)c3ccccc23)c(=O)n(C)c2ccccc12 (single isomer, unassigned) [Example 117] | 7.09 |
| CC1(C)C=Cc2c(C[C@H](NC(=O)c3c(Cl)cccc3Cl)C(=O)O)ccc(-c3c(Cl)cc(F)cc3Cl)c2O1 [Example 170, (S)-3-(8-(2,6-dichloro-4-fluorophenyl)-2,2-dimethyl-2H-chromen-5-yl)-2-(2,6-dichlorobenzamido)propanoic acid] | 6.69 |
| COc1cc(F)c(F)cc1-c1ccc(C[C@H](NC(=O)c2c(Cl)cccc2Cl)C(=O)O)c2ncccc12 [Example 46, (S)-2-(2,6-dichlorobenzamido)-3-(5-(4,5-difluoro-2-methoxyphenyl)quinolin-8-yl)propanoic acid] | 7.49 |
| Cc1cc(N2CCOC[C@@H]2C(F)(F)F)cc(F)c1C(=O)N[C@@H](Cc1ccc(-c2c(C(F)(F)F)cc(C)n(C)c2=O)c2nccnc12)C(=O)O (atropisomer, axis not shown) [Example 178] | 10.10 |
| Cc1c(-c2ccc(C[C@H](NC(=O)c3c(F)cccc3F)C(=O)O)c3ncccc23)c(=O)n(C)c(=O)n1C (single isomer, unassigned) [Example 82] | 7.41 |
| Cc1c(-c2ccc(C[C@H](NC(=O)c3c(F)cccc3F)C(=O)O)c3ncccc23)c(=O)n(C)c(=O)n1C (single isomer, unassigned) [Example 81] | 8.18 |
| CCOCc1cc(OC)c(-c2ccc(C[C@H](NC(=O)c3c(Cl)cccc3Cl)C(=O)O)c3nc(C)oc23)c(OC)c1 [Example 153, (S)-2-(2,6-dichlorobenzamido)-3-(7-(4-(ethoxymethyl)-2,6-dimethoxyphenyl)-2-methylbenzo[d]oxazol-4-yl)propanoic acid] | 7.55 |
| Cn1c(=O)c(-c2ccc(C[C@H](NC(=O)c3c(Cl)cccc3Cl)C(=O)O)c3ncccc23)c(C(F)(F)F)c2ccccc21 [Example 59, (S)-2-(2,6-dichlorobenzamido)-3-(1-methyl-2-oxo-4-(trifluoromethyl)-1,2-dihydro-[3,5′-biquinolin]-8′-yl)propanoic acid] | 7.97 |
| O=C(N[C@@H](Cc1ccc(-c2c(Cl)cc(F)cc2Cl)c2nsnc12)C(=O)O)c1c(F)cccc1F [Example 150, (S)-3-(7-(2,6-dichloro-4-fluorophenyl)benzo[c][1,2,5]thiadiazol-4-yl)-2-(2,6-difluorobenzamido)propanoic acid] | 6.74 |
| Cc1cnc(-c2ccc(C[C@H](NC(=O)c3c(F)cc(N4CCOC[C@@H]4C(F)(F)F)cc3F)C(=O)O)c3ccccc23)nc1C [Example 141, (S)-2-(2,6-difluoro-4-((R)-3-(trifluoromethyl)morpholino)benzamido)-3-(4-(4,5-dimethylpyrimidin-2-yl)naphthalen-1-yl)propanoic acid] | 8.44 |
